Consider 1 substance from paper PMC6838142, “Nano-Antagonist Alleviates Inflammation and Allows for MRI of Atherosclerosis” (Nanotheranostics, 2019).

The test system of experiment [1] is NF-kB. In words: Nanoparticle screening: NFkB activation in RAW-Blue reporter cells. The class given is cell-based, mouse. The procedure: A schematic representation of nanoparticle screening is depicted in Supplementary Figure S4. Briefly, RAW-Blue NFkB reporter cells were cultured as per the manufacturer's recommendations. Cells were seeded and cultured overnight in black opaque 96-well plates with a clear bottom at 50,000 per well. Cells were then treated with 1 and 10 µM of nanoparticles containing 1% rhodamine and positive and negative controls (see below) for 30 min on ice followed by washing steps with cold PBS. Next, lipopolysaccharide (LPS) was added at 100 ng/mL and incubated for 6 h at 37 °C, following which the cells were washed again and incubated for 18 h at 37 °C in fresh medium. Next, 20 µL of supernatant was collected and assayed using SEAP detection reagent in a separate clear bottom 96-well plate as per Invivogen instructions (http://www.invivogen.com). Absorbance at OD 650 nm was recorded and was indicative of NFkB activation. In parallel, cells in the opaque plate were washed again and fluorescence was read at 550 nm excitation and 620 nm emission. This signal from rhodamine was indicative of nanoparticle uptake. […] All analysis was performed using Molecular Devices i3 multi-mode plate reader and SoftMax Pro software version 6.2 (Molecular Devices).

The test system of experiment [2] is RAW 264.7 cells. In words: Gene expression analysis in LPS-stimulated RAW cells. The format is cell-based, mouse. As to conditions: 1 µM, 24 h, LPS 100 ng/mL; vs VTCC or vehicle. The procedure:
RAW 264.7 cells were seeded in 24-well plates at 1.0 x 10^5 per well with LPS (100 ng/mL) and allowed to attach overnight. After a quick wash with PBS, RNA was isolated from cells following the Trizol method. Next, RNA was reverse transcribed to cDNA, and amplified by the polymerase chain reaction (PCR) using reagents from cDNA synthesis kit, SYBR Green PCR Master Mix and target-specific TaqMan probes as indicated in Supplementary Table S1. Roche LightCycler 480 II was used to perform quantification analysis of gene expression using the ΔΔCT method as previously described,[13],[16].

Experiment [3] has as its system bone marrow derived monocytes, CCL2-induced migration. Nature of the experiment: CCL2-induced chemotaxis assay. The class given is cell-based, mouse. Further details: cell velocity / distance traveled / chemotactic index: dose or concentration left out as unconfirmed. The procedure:
Chemotaxis assays were performed using IBIDI µ-Slides as per the manufacturer's instructions and the recently published guide detailing the protocol. […] Cells were allowed to attach for 3 h at 37 °C, washed with 0.2 mL warm cell culture medium using a pipette tip inserted into µ-channel port, following which 100 nM recombinant mouse CCL2 protein was added as a chemoattractant (or omitted in control slides) to the one of side reservoirs. Cell movement was recorded for a duration of 12 h via phase video-microscopy in a stage-top humidified incubator at 37 °C and 5% CO2 atmosphere. Analysis was performed using the ImageJ IBIDI tracking tool, available free of charge at https://ibidi.com.

In experiment [4] the test system is nanoparticle-targeted cells in atherosclerotic plaque. Nature of the experiment: mRNA analysis of laser-captured nanoparticle-positive plaque areas. The format is in vivo, mouse. As to conditions: single dose, 24 h, CCTV vs VTCC, 3-4 animals. The procedure:
Twenty-four hours after nanoparticle injection (see above), mice were euthanized and abdominal aortas were isolated and embedded in Optimal Cutting Temperature compound. After cryotome-sectioning, resulting in 20-30 slides per mouse, 15 slides were sent to Ohio State laser capture microdissection core lab for capture and analysis. The rest of the slides were processed as follows: after fixation in methanol:acetone 50:50 at -20 °C, slides were hydrated in PBS, blocked for 30 min in fish serum (Aqua Block) and stained for 1 h with primary antibodies against F4/80 followed washing and staining with HRP-conjugated secondary antibody for 30 min. DAB peroxidase kit was then used as per manufacturer's instructions followed by mounting. DAB and antibody staining (but not wash steps) was omitted in slides designated for nanoparticle fluorescence visualization. Nanoparticles fluorescence was visualized with Zeiss 510 LSM-meta confocal microscope and 20x objective. DAB F4/80 staining was visualized with Nikon FN1 microscope and same power objective.

The subject of experiment [5] is BMDMs. Nature of the experiment: GSH/GSSG assay in LPS-primed BMDMs. The class given is cell-based, mouse. The conditions noted are these: LPS-primed (100 ng/mL) BMDMs, 5 µM CCTV vs vehicle, 8 experiments.
Procedure: GSH /GSSG, lactate dehydrogenase (LDH) and DCFDA assays were performed according to the manufacturer's instructions.
Experiment [6] has as its system IL-1β. Nature of the experiment: IL-1β release, AlphaLISA. The class given is cell-based, mouse. As to conditions: inflammasome experiment supernatants, 4 experiments. On the procedure: Cytokines were analyzed by EVE Technologies (https://www.evetechnologies.com) using the Luminex 31-Plex kit. Cell culture supernatants were diluted twice with PBS and provided in biological triplicates to EVE Technologies via overnight shipment in dry ice. Individual IL-1β and TNFɑ assays were performed using Perkin Elmer AlphaLISA kits, as per Supplementary Table S1 and vendor instructions.
BMDMs or J774 cells were plated in 48-well plates at 2 x 10^5 per well. Next day, the medium was changed to Opti-MEM (100 μL per well) without serum and the cells were allowed to equilibrate for 3 h. Next, the cells were pretreated with the indicated concentrations of nanoparticles or controls for 3 h followed by the addition of LPS to some wells to the final LPS concentration of 50 ng/mL. LPS priming continued for another 2 h, following which DMSO (vehicle), Nigericin (5 μM) or adenosine triphosphate (ATP) (1 mM) were added to some wells. Cells were incubated for an additional 30 min and cell culture supernatants were collected on ice. Cells were washed with cold PBS once and lysed/processed as described in immunoblotting section. The supernatants (90 μL) were mixed with 10 μL of 10x SDS loading buffer (10% SDS, 10% Ficoll 400, 0.5 M Tris pH 6.8, 0.5 M DTT, and 0.001% bromophenol blue) and heat-denatured as described in the immunoblotting section. […]
For orientation: In Alpha technology, singlet oxygen from a donor bead excites a nearby acceptor bead.

“Also recorded” adds a separate entry of the source.

CCTV: in experiment [1] (10 µM nanoparticles vs Dex 1 mM, LPS 100 ng/mL), the “NF-kB activity compared with dexamethasone” value is on record as “almost to the same level as that in cells treated with NF-kB inhibitor dexamethasone (Dex) at 1 mM”. Moreover, the NF-kB activity entry in experiment [1] (1 and 10 µM nanoparticles, 30 min on ice, LPS 100 ng/mL 6 h, SEAP OD 650 nm) was “significantly downregulated NF-kB activity”. Also, in experiment [2], the “Il1b mRNA expression” value is given as “significantly downregulated”, the “Il6 mRNA expression” value is reported as “significantly downregulated”, the “Nos2 mRNA expression” value is reported as “significantly downregulated” and the “Tnf mRNA expression” value is recorded as “unaffected”. In experiment [3] (CCL2-induced chemotaxis), the cell velocity entry is given as “statistically significant inhibition”, the chemotactic index entry is recorded as “statistically significant inhibition” and the distance traveled result is “statistically significant inhibition”. Besides, in experiment [3] (pre-treated BMDMs, 100 nM recombinant mouse CCL2, 12 h, nanoparticles), the CCL2-induced monocyte migration entry is given as “potently inhibited CCL2-induced monocyte migration in an antagonistic manner”. Moreover, in experiment [4], the “Arg1 mRNA in nanoparticle-targeted plaque cells” value was “slightly upregulated in CCTV-targeted cells, however this was not significant”; the “Ccl2 mRNA in nanoparticle-targeted plaque cells” value is “downregulated”; the “Il6 mRNA in nanoparticle-targeted plaque cells” value is reported as “downregulated”. For the same substance, in experiment [5], the GSH levels entry was “unable to restore GSH levels; also recorded: unaffected” and the GSSG levels result is “unable to restore GSH levels or reduce GSSG; also recorded: unaffected”. Moreover, the IL-1β release entry in experiment [6] was “confirmed the actions of CCTV”.
